Data reported in patent US20260272891A1, “TREATMENT OF AUTOIMMUNE DISEASES AND CANCER WITH PROTEASE INHIBITORS” (Lundquist Institute for Biomedical Innovation at …, priority 2023, published 2026).

Columns and labels:
PBMC stimulated by LPS = test: ELISA cytokines, frozen PBMCs stimulated by LPS; format: cell-based, human; settings: for production of LPS-stimulated IL-6 / production of LPS-stimulated IL-10 / production of LPS-stimulated IL-23 / production of LPS-stimulated TNF-α: dose response, three concentrations, donors D186, D317, D93, versus LPS alone
Description: PBMC were purified by Ficoll-Hypaque gradient centrifugation (Pharmacia, Piscataway, NJ) and stimulated after freshly isolated as described, or cryopreserved in cryoprotective medium consisting of 90% fetal bovine serum (FBS) in combination with 10% dimethyl sulfoxide (DMSO) at 20 to 30 million cells per vial, and thawed for later stimulation as described.
Cytokine dose-response analysis was performed using linear regression model testing dose (ordinal variable) and adjusting for the individual donors.

[1] = test system: Monocytes stimulated by LPS; test: ELISA cytokines, monocytes stimulated by LPS; format: cell-based, human; settings: for IL-16 levels / IL-6 / IL-10 / IL-23 / TNF-α: 5000 ng/mL, LPS; for IL-6 / IL-10 / IL-23 / TNF-α: donors D186, D317, D93
Excerpt: For all experiments, peripheral blood mononuclear cells (PBMC) were isolated either from healthy blood donors as above or purchased from HemaCare as Leukopaks (D186, D317 and D93). PBMC were purified by Ficoll-Hypaque gradient centrifugation (Pharmacia, Piscataway, NJ) and stimulated after freshly isolated as described, or cryopreserved in cryoprotective medium consisting of 90% fetal bovine serum (FBS) in combination with 10% dimethyl sulfoxide (DMSO) at 20 to 30 million cells per vial, and thawed for later stimulation as described. For studies with enriched monocytes, PBMC were cultured in 1% FBS in RPMI 1640, and adhered to sterile plastic tissue culture plates for 1-2 hours; followed by washing off nonadherent PBMC. Remaining adherent monocytes were stimulated as described.
Isolated PBMCs were washed once in 1% FCS RPMI and re-suspended in RPMI-1640 (ThermoFisher Scientific) in 1-2% FCS RPMI. For monocyte isolation, 2×10^6 PBMCs per well were plated in 24-well tissue culture treated plate (ThermoFisher Scientific) at 1 ml each well. Monocytes were allowed to adhere in a 5% CO2 container at 37° C. for 2 hr. Nonadherent cells were removed by thorough washing 2 times with 1% FCS RPMI-1640.

[2] = test system: T cells activated using beads; test: ELISA cytokines, T cell activation with beads; format: cell-based, human; settings: 5000 ng/ml; for IFN-γ production / IL10 production / IL-4 levels / TNF-α production: activated cells (Bead); for IL-2 production: activated cells, compared to negative control
Description: Conditioned media were tested undiluted, or diluted 1:3 and 1:9 to determine tumor necrosis factor (TNF) α concentration.

4T1 cells = test: Killing of 4T1 cells; format: cell-based, mouse
SARS-COV-2 Mpro = SARS-COV-2 Mpro (Severe acute respiratory syndrome coronavirus 2, UniProt P0DTD1); settings: cited from earlier work
T cells = settings: cells from mice; cited from earlier work
PBMCs = test: Flow cytometry, FSC versus SSC gating, percentage of PBMCs; settings: for percentage of PBMCs (FSC versus SSC gating): 24 hrs
CD3+ T cells = test: Flow cytometry, Propidium iodide/CD3 staining to verify drug toxicity; settings: for toxicity in gated CD3+ T cells compared to DMSO treatment only: three concentrations, donors D186, D317, D93
[3] = test system: CD14+ cells for monocytes; test: Flow cytometry, Propidium iodide/CD14 staining to verify drug toxicity

Question: Which “production of LPS-stimulated IL-6” value (PBMC stimulated by LPS) does the source give for CC(C)c1nc(CN(C)C(=O)N[C@H](C(=O)N[C@@H](Cc2ccccc2)C[C@H](O)[C@H](Cc2ccccc2)NC(=O)OCc2cncs2)C(C)C)cs1 [RTV, ritonavir] here?
Answer: no effect

Question: And the “production of LPS-stimulated IL-10” value (PBMC stimulated by LPS)?
Answer: no effect

Question: What about the “production of LPS-stimulated IL-23” value (PBMC stimulated by LPS) of the same compound?
Answer: no effect

Question: And the “production of LPS-stimulated TNF-α” value (PBMC stimulated by LPS)?
Answer: no effect

Question: And the IL-16 levels ([1]; donor186)?
Answer: Slightly decreased

Question: And the IL-16 levels ([1]; donors 317 and 93)?
Answer: increasing levels

Question: And the IL-6 [1]?
Answer: decrease

Question: And the IL-10 [1]?
Answer: decrease

Question: And the IL-23 [1]?
Answer: decrease

Question: And the TNF-α [1]?
Answer: decrease

Question: What about the IL-1β ([1]; monocytes, 5000 ng/ml) of the same compound?
Answer: decreased

Question: What about the IFN-γ production [2] of the same compound?
Answer: higher levels

Question: What about the IL10 production [2] of the same compound?
Answer: higher

Question: And the IL-4 levels [2]?
Answer: higher

Question: What about the TNF-α production [2] of the same compound?
Answer: high levels

Question: What about the IL-2 production [2] of the same compound?
Answer: elevated

Question: What about the “killing of 4T1 cells” value (4T1 cells) of the same compound?
Answer: killed 4T1 cells in a dose responsive manner

Question: And the “activity against SARS-COV-2 Mpro” value (SARS-COV-2 Mpro)?
Answer: lacks activity

Question: And the “IL2, IFN-gamma and TNF-alpha secretion” value (T cells)?
Answer: decreasing

Question: What about the “percentage of PBMCs (FSC versus SSC gating)” value (shortened to “percentage of PBMCs”) (PBMCs; Donor 93, 1250 ng) of the same compound?
Answer: 60.4%

Question: What about the “percentage of PBMCs” value (PBMCs; Donor 93, 2500 ng) of the same compound?
Answer: 62.9%

Question: And the “percentage of PBMCs” value (PBMCs; Donor 93, 5000 ng)?
Answer: 55.9%

Question: What about the “percentage of PBMCs” value (PBMCs; Donor 186, 1250 ng) of the same compound?
Answer: 48.0%

Question: And the “percentage of PBMCs” value (PBMCs; Donor 186, 2500 ng)?
Answer: 51.3%

Question: What about the “percentage of PBMCs” value (PBMCs; Donor 186, 5000 ng) of the same compound?
Answer: 44.9%

Question: And the “percentage of PBMCs” value (PBMCs; Donor 317, 1250 ng)?
Answer: 61.3%

Question: And the “percentage of PBMCs” value (PBMCs; Donor 317, 2500 ng)?
Answer: 56.2%

Question: And the “percentage of PBMCs” value (PBMCs; Donor 317, 5000 ng)?
Answer: 57.4%

Question: And the “cells double positive for Propidium iodide (PI) and CD3 (dead cells)” value (CD3+ T cells; Donor 93, 1250 ng)?
Answer: 19.5%

Question: What about the “cells double positive for Propidium iodide (PI) and CD3 (dead cells)” value (CD3+ T cells; Donor 93, 2500 ng) of the same compound?
Answer: 19.8%

Question: And the “cells double positive for Propidium iodide (PI) and CD3 (dead cells)” value (CD3+ T cells; Donor 93, 5000 ng)?
Answer: 19.5%

Question: And the “cells double positive for Propidium iodide (PI) and CD3 (dead cells)” value (CD3+ T cells; Donor 186, 1250 ng)?
Answer: 27.9%

Question: What about the “cells double positive for Propidium iodide (PI) and CD3 (dead cells)” value (CD3+ T cells; Donor 186, 2500 ng) of the same compound?
Answer: 28.9%

Question: And the “cells double positive for Propidium iodide (PI) and CD3 (dead cells)” value (CD3+ T cells; Donor 186, 5000 ng)?
Answer: 28.6%

Question: And the “cells double positive for Propidium iodide (PI) and CD3 (dead cells)” value (CD3+ T cells; Donor 317, 1250 ng)?
Answer: 18.1%

Question: What about the “cells double positive for Propidium iodide (PI) and CD3 (dead cells)” value (CD3+ T cells; Donor 317, 2500 ng) of the same compound?
Answer: 17.5%

Question: And the “cells double positive for Propidium iodide (PI) and CD3 (dead cells)” value (CD3+ T cells; Donor 317, 5000 ng)?
Answer: 17.8%

Question: And the “toxicity in gated CD3+ T cells compared to DMSO treatment only” value (CD3+ T cells)?
Answer: similar

Question: What about the “cells double positive for Propidium iodide (PI) and CD14 (dead cells)” value ([3]; Donor 93, 1250 ng) of the same compound?
Answer: 0.90%

Question: What about the “cells double positive for Propidium iodide (PI) and CD14 (dead cells)” value ([3]; Donor 93, 2500 ng) of the same compound?
Answer: 1.12%

Question: And the “cells double positive for Propidium iodide (PI) and CD14 (dead cells)” value ([3]; Donor 93, 5000 ng)?
Answer: 0.81%

Question: What about the “cells double positive for Propidium iodide (PI) and CD14 (dead cells)” value ([3]; Donor 186, 1250 ng) of the same compound?
Answer: 2.14%

Question: And the “cells double positive for Propidium iodide (PI) and CD14 (dead cells)” value ([3]; Donor 186, 2500 ng)?
Answer: 1.71%

Question: And the “cells double positive for Propidium iodide (PI) and CD14 (dead cells)” value ([3]; Donor 186, 5000 ng)?
Answer: 1.71%

Question: What about the “cells double positive for Propidium iodide (PI) and CD14 (dead cells)” value ([3]; Donor 317, 1250 ng) of the same compound?
Answer: 0.42%

Question: What about the “cells double positive for Propidium iodide (PI) and CD14 (dead cells)” value ([3]; Donor 317, 2500 ng) of the same compound?
Answer: 0.38%

Question: And the “cells double positive for Propidium iodide (PI) and CD14 (dead cells)” value ([3]; Donor 317, 5000 ng)?
Answer: 0.44%

Question: Which IL-23 levels (PBMC stimulated by LPS; 5000 ng/ml, LPS, three donors) does the source give for CC(C)(C)[C@H](NC(=O)C(F)(F)F)C(=O)N1C[C@H]2[C@@H]([C@H]1C(=O)N[C@H](C#N)C[C@@H]1CCNC1=O)C2(C)C [NMV, nirmatrelvir] here?
Answer: Two of three donors already had no detectable IL-23 levels

Question: What about the “production of LPS-stimulated IL-6” value (PBMC stimulated by LPS) of the same compound?
Answer: diminished

Question: And the “production of LPS-stimulated IL-10” value (PBMC stimulated by LPS)?
Answer: diminished

Question: And the “production of LPS-stimulated IL-23” value (PBMC stimulated by LPS)?
Answer: diminished

Question: What about the “production of LPS-stimulated TNF-α” value (PBMC stimulated by LPS) of the same compound?
Answer: diminished

Question: What about the “cytokines except IL-1β (IL-6, IL-10, IL-23, TNF-α)” value (PBMC stimulated by LPS; frozen PBMCs stimulated with LPS) of the same compound?
Answer: decrease

Question: And the IL-16 levels ([1]; donors 317 and 93)?
Answer: increasing levels

Question: What about the IL-6 [1] of the same compound?
Answer: decrease

Question: And the IL-10 [1]?
Answer: decrease

Question: What about the IL-23 [1] of the same compound?
Answer: decrease

Question: What about the TNF-α [1] of the same compound?
Answer: decrease

Question: And the IFN-γ production [2]?
Answer: lower

Question: And the IL10 production [2]?
Answer: lower

Question: And the IL-4 levels [2]?
Answer: lower when compared to all groups with activated cells

Question: And the TNF-α production [2]?
Answer: low

Question: And the TNF-α production ([2]; listed as NMR)?
Answer: lower

Question: And the IL-2 production [2]?
Answer: elevated

Question: And the “killing of 4T1 cells” value (4T1 cells)?
Answer: killed 4T1 cells in a dose responsive manner

Question: What about the “percentage of PBMCs” value (PBMCs; Donor 93, 1250 ng) of the same compound?
Answer: 74.8%

Question: And the “percentage of PBMCs” value (PBMCs; Donor 93, 2500 ng)?
Answer: 76.2%

Question: What about the “percentage of PBMCs” value (PBMCs; Donor 93, 5000 ng) of the same compound?
Answer: 54.6%

Question: What about the “percentage of PBMCs” value (PBMCs; Donor 186, 1250 ng) of the same compound?
Answer: 52.8%

Question: What about the “percentage of PBMCs” value (PBMCs; Donor 186, 2500 ng) of the same compound?
Answer: 44.8%

Question: And the “percentage of PBMCs” value (PBMCs; Donor 186, 5000 ng)?
Answer: 47.7%

Question: And the “percentage of PBMCs” value (PBMCs; Donor 317, 1250 ng)?
Answer: 55.4%

Question: What about the “percentage of PBMCs” value (PBMCs; Donor 317, 2500 ng) of the same compound?
Answer: 64.4%

Question: What about the “percentage of PBMCs” value (PBMCs; Donor 317, 5000 ng) of the same compound?
Answer: 55.9%

Question: And the “Peripheral Blood Mononuclear Cells' viability” value (PBMCs; all different concentrations, three donors)?
Answer: Do Not Affect

Question: What about the “cells double positive for Propidium iodide (PI) and CD3 (dead cells)” value (CD3+ T cells; Donor 93, 1250 ng) of the same compound?
Answer: 19.2%

Question: And the “cells double positive for Propidium iodide (PI) and CD3 (dead cells)” value (CD3+ T cells; Donor 93, 2500 ng)?
Answer: 17.1%

Question: And the “cells double positive for Propidium iodide (PI) and CD3 (dead cells)” value (CD3+ T cells; Donor 93, 5000 ng)?
Answer: 16.0%

Question: What about the “cells double positive for Propidium iodide (PI) and CD3 (dead cells)” value (CD3+ T cells; Donor 186, 1250 ng) of the same compound?
Answer: 29.9%

Question: What about the “cells double positive for Propidium iodide (PI) and CD3 (dead cells)” value (CD3+ T cells; Donor 186, 2500 ng) of the same compound?
Answer: 31.1%

Question: And the “cells double positive for Propidium iodide (PI) and CD3 (dead cells)” value (CD3+ T cells; Donor 186, 5000 ng)?
Answer: 28.5%

Question: And the “cells double positive for Propidium iodide (PI) and CD3 (dead cells)” value (CD3+ T cells; Donor 317, 1250 ng)?
Answer: 17.9%

Question: And the “cells double positive for Propidium iodide (PI) and CD3 (dead cells)” value (CD3+ T cells; Donor 317, 2500 ng)?
Answer: 16.9%

Question: And the “cells double positive for Propidium iodide (PI) and CD3 (dead cells)” value (CD3+ T cells; Donor 317, 5000 ng)?
Answer: 17.1%

Question: And the “toxicity in gated CD3+ T cells compared to DMSO treatment only” value (CD3+ T cells)?
Answer: similar

Question: What about the “cells double positive for Propidium iodide (PI) and CD14 (dead cells)” value ([3]; Donor 93, 1250 ng) of the same compound?
Answer: 0.90%

Question: And the “cells double positive for Propidium iodide (PI) and CD14 (dead cells)” value ([3]; Donor 93, 2500 ng)?
Answer: 0.74%

Question: And the “cells double positive for Propidium iodide (PI) and CD14 (dead cells)” value ([3]; Donor 93, 5000 ng)?
Answer: 0.64%

Question: And the “cells double positive for Propidium iodide (PI) and CD14 (dead cells)” value ([3]; Donor 186, 1250 ng)?
Answer: 0.75%

Question: And the “cells double positive for Propidium iodide (PI) and CD14 (dead cells)” value ([3]; Donor 186, 2500 ng)?
Answer: 1.28%

Question: And the “cells double positive for Propidium iodide (PI) and CD14 (dead cells)” value ([3]; Donor 186, 5000 ng)?
Answer: 0.74%

Question: What about the “cells double positive for Propidium iodide (PI) and CD14 (dead cells)” value ([3]; Donor 317, 1250 ng) of the same compound?
Answer: 0.37%

Question: And the “cells double positive for Propidium iodide (PI) and CD14 (dead cells)” value ([3]; Donor 317, 2500 ng)?
Answer: 0.31%

Question: And the “cells double positive for Propidium iodide (PI) and CD14 (dead cells)” value ([3]; Donor 317, 5000 ng)?
Answer: 0.32%
